We go through 15 molecules from PubChem BioAssay (NCI).

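1) Cells in 96-well plates. 2) Compound, 48 h, 5 concentrations. 3) Linear interpolation between surrounding doses. 4) Unreached endpoint = highest concentration. TGI denotes the concentration required for complete inhibition of growth.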

Holding throughout (assay): growth of human tumour cells (NCI), 48 h
The test system of assay [1] is CCRF-CEM leukemia.
The test system of assay [2] is HS 578T breast.
In assay [3] the test system is LOX IMVI melanoma.
Assay [4] has as its system NCI-H23 lung.
Assay [5] relates to NCI/ADR-RES ovarian.
Assay [6] relates to PC-3 prostate.
The subject of assay [7] is SF-295 CNS.
Assay [8] relates to SNB-75 CNS.
In assay [9] the test system is TK-10 renal.
In assay [10] the test system is HCC-2998 colon.

On to `COP(=O)(OC)C(N)CCSC` (configuration not stated), for which the TGI in assay [1], in assay [2], in assay [3], in assay [4], in [5] and in assay [6] was over 100 µM in each case. In addition, the TGI in assay [7], in assay [8] and in assay [9] was over 100 µM throughout.
As for `O=C(c1ccccc1)c1c(C(F)(F)F)n([O-])c2ccccc2[n+]1=O`, the TGI is over 100 µM in [1]; over 100 µM in assay [2]; over 100 µM in assay [3]; 3.71 µM in [4]; over 100 µM in [5]; 2.27 µM in assay [6]. Moreover, the TGI in [8] turned out to be 2.74 µM; in assay [9], 3.6 µM.
For `CC(=O)/C=C/C=C(\C)CC/C=C(\C)CC(C)C`, the TGI in assay [1] was 37 µM; in assay [10], 34.7 µM; in assay [2] it was over 100 µM; in assay [3], 34 µM; in assay [4], 54.9 µM; in [6] it was over 100 µM. Also, the figures for the TGI in assay [7], in assay [8] and in assay [9] were over 100 µM, 98.8 µM and over 100 µM, respectively.
Turning to `CCOC(=O)c1ccc2nc(NC(=O)COC(=O)CSc3nc(C)cc(C)n3)sc2c1`, the TGI in assay [1] was 15.5 µM; in [2], over 100 µM; in [3], over 100 µM; in [4] it was over 100 µM; in assay [5], over 100 µM; in assay [6], over 100 µM. Also, the TGI in [7] is over 100 µM; in assay [8] it was 60.4 µM; in assay [9], over 100 µM.
Turning to `Cc1cc(S(=O)(=O)Nc2nnc3c(C(F)(F)F)cc(Cl)cn23)c(S)cc1Cl`, the TGI in assay [1], in [10], in [2], in assay [3], in assay [5] and in assay [6] was over 100 µM each time. Also, the TGI in [8] and in assay [9] was over 100 µM each time.
Take `CCC1(CC)C(=O)CC[C@@]2(C)C1=CC[C@H]1[C@@H]3CC[C@H](O)[C@@]3(C)CC[C@@H]12`: the TGI in assay [1] was 45.7 µM; in assay [2], 72.6 µM; in assay [3], 37.8 µM; in [4], over 100 µM; in assay [5], over 100 µM; in assay [6], over 100 µM. In addition, the TGI in assay [7] was 62.1 µM; in assay [8], over 100 µM; in assay [9], 41.9 µM.
Consider `Cc1c2c3cc(O)ccc3nc-2n(C)c2ccccc12`, for which the TGI in assay [1] is 4.37 µM; in assay [10], 6.28 µM; in assay [2] it was 8.21 µM; in [4], 8.61 µM; in [5], 3.4 µM; in assay [6], 5.94 µM. Moreover, the values for the TGI in [7], in [8] and in assay [9] were 13 µM, 5.83 µM and 9.82 µM, respectively.
For the molecule `Cc1ccc(C(=O)N(C(C)C)C(C)C)cc1N=NN(C)C`, the TGI was over 100 µM in assay [10]; over 100 µM in assay [2]; over 31.6 µM in assay [3]; over 100 µM in assay [4]; over 100 µM in assay [5]; over 100 µM in assay [6]. Further, the TGI in assay [7] and in [9] was over 100 µM throughout.
Regarding `COc1ccc(C2(c3ccc(OC)cc3)OC(=O)c3cccc4cccc2c34)cc1`, the TGI in [1] was 7.71 µM; in assay [10], 37.5 µM; in assay [2], 97.4 µM; in assay [3] it was over 100 µM; in assay [4], over 100 µM; in assay [5], 7.55 µM. Besides, the TGI in assay [6] is 6.47 µM; in assay [7], over 100 µM; in assay [9], 96.4 µM.
Turning to `CN=C(Nn1cnnc1)OC`, the TGI in assay [1], in assay [10], in assay [2], in [4], in assay [5] and in assay [6] was over 100 µM throughout. Also, in assay [7], the TGI is over 100 µM.
Regarding `CCCn1c(C23CC4CC(CC(C4)C2)C3)nc2ccc(Cl)cc2c1=O`, the TGI in assay [1], in [2], in [3], in [4], in assay [5] and in assay [6] was over 100 µM in each case. Also, the TGI in assay [7] and in assay [9] was over 100 µM each time.
On to `C#CCNC(Cc1cnc[nH]1)C(=O)O` (configuration not stated), for which the TGI in assay [1], in [2], in [3], in assay [5], in [6] and in [7] was over 100 µM in each case. In addition, the TGI in [8] and in assay [9] was over 100 µM each time.
With `S=C(N/N=C\C=N/NC(=S)N1CCCCCC1)N1CCCCCC1`, the TGI is over 100 µM in assay [10]; over 100 µM in assay [2]; over 100 µM in assay [3]; over 100 µM in [4]; over 85.9 µM in assay [5]; over 100 µM in assay [6]. In addition, the TGI in assay [7], in assay [8] and in assay [9] was over 100 µM throughout.
Take `N#Cc1c(Nc2ccc(F)cc2)[n+]([O-])c2ccc(Cl)cc2[n+]1[O-]`: the TGI in [1] was over 100 µM; in assay [2] it was over 100 µM; in assay [3] it was 4.27 µM; in assay [4] it was 23.4 µM; in assay [5], 5.37 µM; in [6] it was over 100 µM. The TGI in [7] is 4.95 µM; in assay [8], 74.6 µM; in assay [9], over 100 µM.
On to `CC[C@]12C=CCN3CCC4(c5cc(N=Nc6ccccc6)c(OC)cc5N(C)[C@H]4[C@@](O)(C(=O)OC)[C@@H]1OC(C)=O)[C@@H]32` (some centres not stated), for which the TGI in [10] is 36.3 µM; in assay [2] it was 39 µM; in assay [3], 33 µM; in [4] it was 30.5 µM; in assay [5] it was 55.6 µM; in [6], 29.8 µM. The figures for the TGI in assay [7] and in [9] were 34.5 µM and 34.1 µM, respectively.
